Laboratory results published in paper PMC11822212, “High-throughput screening identifies Aurora kinase B as a critical therapeutic target for Merkel cell carcinoma” (Nature Communications, 2025).
Where a name gives a salt, the structure may show the parent alone. Read-outs that look alike come from different tables or passages of the source.

How the values were obtained:
Assay in all cases: qHTS cell viability (CellTiter-Glo, 72 h; primary and follow-up small molecule screen)
Format in all cases: cell-based, human
[1] = test system: UISO cells (VN-MCC)
[2] = test system: MCC26 cells (VN-MCC)
[3] = test system: WAGA cells (VP-MCC)
[4] = test system: MKL-1 cells (VP-MCC)
[5] = test system: MKL-2 cells (VP-MCC)
[6] = test system: MCC13 cells (VN-MCC)

Structure (SMILES)	Area under the dose-response curve (AUC) UISO Replicate 1 [1]	Area under the dose-response curve (AUC) UISO Replicate 2 [1]	Area under the dose-response curve (AUC) UISO Replicate 3 [1]	Area under the dose-response curve (AUC) MCC26 Replicate 1 [2]	Area under the dose-response curve (AUC) MCC26 Replicate 2 [2]	Area under the dose-response curve (AUC) MCC26 Replicate 3 [2]	Area under the dose-response curve (AUC) WAGA Replicate 1 [3]	Area under the dose-response curve (AUC) WAGA Replicate 2 [3]	Area under the dose-response curve (AUC) WAGA Replicate 3 [3]	Area under the dose-response curve (AUC) MKL-1 Replicate 1 [4]	Area under the dose-response curve (AUC) MKL-1 Replicate 2 [4]	Area under the dose-response curve (AUC) MKL-1 Replicate 3 [4]	Area under the dose-response curve (AUC) MKL-2 Replicate 1 [5]	Area under the dose-response curve (AUC) MKL-2 Replicate 2 [5]	Area under the dose-response curve (AUC) MKL-2 Replicate 3 [5]	Area under the dose-response curve (AUC) MCC13 Replicate 1 [6]	Area under the dose-response curve (AUC) MCC13 Replicate 2 [6]	Area under the dose-response curve (AUC) MCC13 Replicate 3 [6]	also measured
O=C1c2c(O)ccc(O)c2C(=O)c2c(NCCNCCO)ccc(NCCNCCO)c21 [Mitoxantrone dihydrochloride]	188.5	205.7	190.2	322.6	335.6	279.8	153.5	170.4	183.6	180.6	178.5	172.4	203.7	186.2	247.3	292.1	295.3	315.4	
COc1ccc(OC)c(-c2nnc3ccc(-c4ccc(OC)c(O[C@@H]5CCOC5)c4)nn23)c1 [NCGC00168459-01]																			Area under the dose-response curve (AUC) UISO Replicate 1 ([1]; follow-up screen, UISO, replicate 1): 435.8; Area under the dose-response curve (AUC) UISO Replicate 2 ([1]; follow-up screen, UISO, replicate 2): 424.6; Area under the dose-response curve (AUC) UISO Replicate 3 ([1]; follow-up screen, UISO, replicate 3): 430.2; Area under the dose-response curve (AUC) MCC26 Replicate 1 ([2]; follow-up screen, MCC26, replicate 1): 450.8; Area under the dose-response curve (AUC) MCC26 Replicate 2 ([2]; follow-up screen, MCC26, replicate 2): 439.4; Area under the dose-response curve (AUC) MCC26 Replicate 3 ([2]; follow-up screen, MCC26, replicate 3): 478.6; Area under the dose-response curve (AUC) WAGA Replicate 1 ([3]; follow-up screen, WAGA, replicate 1): 480.8; Area under the dose-response curve (AUC) WAGA Replicate 2 ([3]; follow-up screen, WAGA, replicate 2): 429.3; Area under the dose-response curve (AUC) WAGA Replicate 3 ([3]; follow-up screen, WAGA, replicate 3): 424.9; Area under the dose-response curve (AUC) MKL-1 Replicate 1 ([4]; follow-up screen, MKL-1, replicate 1): 460.8; Area under the dose-response curve (AUC) MKL-1 Replicate 2 ([4]; follow-up screen, MKL-1, replicate 2): 464.3; Area under the dose-response curve (AUC) MKL-1 Replicate 3 ([4]; follow-up screen, MKL-1, replicate 3): 463.4; Area under the dose-response curve (AUC) MKL-2 Replicate 1 ([5]; follow-up screen, MKL-2, replicate 1): 463.7; Area under the dose-response curve (AUC) MKL-2 Replicate 2 ([5]; follow-up screen, MKL-2, replicate 2): 433.6; Area under the dose-response curve (AUC) MKL-2 Replicate 3 ([5]; follow-up screen, MKL-2, replicate 3): 459.9; Area under the dose-response curve (AUC) MCC13 Replicate 1 ([6]; follow-up screen, MCC13, replicate 1): 471.2; Area under the dose-response curve (AUC) MCC13 Replicate 2 ([6]; follow-up screen, MCC13, replicate 2): 476.6; Area under the dose-response curve (AUC) MCC13 Replicate 3 ([6]; follow-up screen, MCC13, replicate 3): 471.3
CO[C@@H]1C[C@@H](C[C@H]2CC[C@H](C)[C@H]([C@@H](C)C(=O)[O-])O2)O[C@]2(O[C@](C)([C@H]3CC[C@@](C)([C@@H]4O[C@@H]([C@H]5O[C@@](O)(CO)[C@H](C)C[C@@H]5C)C[C@@H]4C)O3)C[C@H]2C)[C@@H]1C.[Na+] [Nigericin sodium salt]	277.0	262.8	250.0	423.1	378.2	418.9	344.8	317.4	302.7	303.1	277.9	285.1	228.1	251.1	280.4	420.5	422.2	367.3	
